Experiments:
[1] = system: alloxan-treated adult zebrafish; experiment: Blood glucose level in alloxan-treated adult zebrafish; format: in vivo
Description: Wild-type adult zebrafish were treated for 1 hour with 2 mg/ml alloxan and then for 1 hour with 1% glucose in the absence of insulin. Subsequently, the reaction solution was exchanged with water in which the zebrafish were then left for 1 hour before treatment with HdP, metformin, or BAPTA-AM for 90 min. Thus, the experiment groups included a non-treated group, an alloxan-treated group (control), a group treated with alloxan and HdP (0.3 μg/g body weight), a group treated with alloxan and metformin (5 μg/g body weight), a group treated with alloxan and BAPTA-AM (3 μg/g body weight), and a group treated with alloxan, BAPTA-AM (3 μg/g body weight), and HdP (0.3 μg/g body weight).

[2] = molecular target: yeast α-glucosidase; experiment: Inhibitory activity against α-glucosidase; format: biochemical; conditions: yeast enzyme, PNP-G substrate, pH 7.0, 37° C.; read-out: IC50 (concentration necessary for inhibiting the activity of α-glucosidase by 50%)
Description: Inhibitory activity against α-glucosidase was evaluated using a yeast enzyme according to the method of Watanabe et al. (Watanabe, Kawabata, Kurihara, & Niki, 1997). In the reaction condition of pH 7.0 and 37° C., 5 mM p-nitrophenyl α-D-glucopyranoside (PNP-G) serving as a substrate was reacted with a dilution of 32 mU/ml enzyme (yeast α-glucosidase, Sigma) in 100 mM phosphate buffer and inhibitory activity was measured using spectrophotometry. The sample was reacted with PNP-G for 5 min and the absorbance of 4-nitrophenol released upon the hydrolysis of PNP-G was read at 405 nm. Subsequently, the same amount of the substrate solution was added and reacted at room temperature for an additional five min., after which the reaction was stopped by adding 0.5 M Na2CO3. A change in absorbance at 405 nm was measured.
Inhibitory activity (%) against α-glucosidase was calculated according to the formula (1-absorbance of sample-added group/absorbance of solvent-added group)×100).
Acabose, which is an oral hypoglycemic agent inhibitory of α-glucosidase, was used as a positive control.

[3] = system: zebrafish embryos; experiment: Intracellular calcium level in zebrafish embryo using Fluo-4; format: in vivo
Description: Intracellular calcium levels of zebrafish embryos were measured using a calcium-sensitive Fluo-4 probe. Embryos were incubated with Fluo-4 at 28.5±1° C. for 30 min before treatment with HdP (0.6, 3, and 6 μg/ml). In order to block the entry of calcium into cells, the embryos were reacted with the calcium chelator BAPTA-AM 0.1 mM for 1 hour before incubation with Fluo-4. The experiment groups included a non-treated group (N), a group treated with Fluo-4 alone (F), a group treated with HdP alone (0.6, 3, and 6 μg/ml), a group treated with Fluo-4 and HdP (0.6, 3, and 6 μg/ml), and a group treated with Fluo-4, BAPTA-AM, and HdP (6 μg/ml).

[4] = system: differentiated myoblast C2C12 cells; experiment: Glucose uptake of C2C12 cells, 2-NBDG flow cytometry (FACS); format: cell-based, mouse; conditions: treated with HdP for 24 hours, 2-NBDG fluorescence, dose-dependent
Description: The mouse-derived myoblast C2C12 cells (ATCC, Manassas, Va., USA) were suspended in DMEM (Dulbecco's Modified Eagle's Media) medium supplemented with 10% FBS and an antibiotic and cultured at 37° C. under a 5% CO2 atmosphere in an incubator. Upon 80% confluency, the C2C12 cells subjected to differentiation in a DMEM medium containing 2% horse serum and a low concentration of glucose for 5 days, with the medium freshly changed every three days. The differentiated cells were serum starved for 12 hours in serum free DMEM containing a low concentration of glucose, washed with PBS, and then reacted for 24 hours with the sample (HdP) in a fresh serum free DMEM.
Glucose uptake of mouse-derived myoblast C2C12 cells was measured using flow cytometry (FACS) according to the (2-(N-(7-nitrobenz-2oxa-1,3-diazol-4-yl)amino)-2-deoxyglucose (2-NBDG) assay method (Cell Death Dis. 2017 Oct. 5. 8 (10):e3078). The cultured cells were incubated with 10 μM 2-NBDG at 37° C. for 24 hours and then analyzed using BD FACS Cantoll (BD Biosciences, NJ, USA), with the fluorescence of 2-NBDG detected in a FITC channel.

[5] = system: zebrafish embryos; experiment: HdP toxicity in zebrafish embryo; format: in vivo; conditions: 1 μg/ml or less HdP, exposed until 168 hours after fertilization
Description: Four days after fertilization, each of the embryos (n=15) was transferred to 12-well plates, each containing 950 μl of an embryo medium (distilled water containing 60 ppm salt) and 50 μl of HdP (0.01, 0.1, 1, and 10 μg/ml) and the viability of zebrafish embryos exposed to HdP for 168 hours after fertilization were measured.

Oc1cc(O)cc(Oc2cc(O)c(Oc3c(O)cc(O)cc3Oc3cc(O)c(Oc4cc(O)cc(O)c4Oc4cc(O)cc(O)c4Oc4cc(O)cc(O)c4Oc4cc(O)c(Oc5c(O)cc(O)cc5Oc5c(O)cc(Oc6c(O)cc(Oc7c(O)cc(Oc8c(O)cc(Oc9c(O)cc(Oc%10c(O)cc(Oc%11c(O)cc(O)cc%11O)cc%10O)cc9O)cc8O)cc7O)cc6O)cc5O)c(O)c4)c(O)c3)c(O)c2)c1 [HdP, hexadecaphlorethol]
blood glucose level ([1]; HdP 0.3 μg/g body weight, 90 min): significantly reduced | blood glucose level, HdP plus BAPTA-AM versus alloxan plus BAPTA-AM ([1]; HdP 0.3 μg/g with BAPTA-AM 3 μg/g body weight): No significant differences | IC50 [2]: 55 µM | intracellular Ca2+ level (Fluo-4 phosphorescence) with calcium chelator BAPTA-AM ([3]; Fluo-4, BAPTA-AM 0.1 mM and HdP 6 μg/ml): phosphorescence decrease | intracellular Ca2+ level (Fluo-4 phosphorescence) ([3]; HdP 0.6, 3 and 6 μg/ml with Fluo-4, versus group treated with Fluo-4 alone): significant increase | glucose uptake into differentiated C2C12 cells [4]: significantly increase | survival rate of zebrafish embryos [5]: ≥ 90%

CN(C)C(=N)N=C(N)N [metformin, reference compound]
blood glucose level (effect compared with HdP) ([1]; metformin 5 μg/g body weight, 90 min): similar
